{"source": "paper PMC6362346", "about": "“Serendipita indica E5′NT modulates extracellular nucleotide levels in the plant apoplast and affects fungal colonization” (EMBO Reports, 2019)", "biological_target": "T1, SiE5′NT (Serendipita indica, UniProt G4T774)", "T1 construct": "gene PIIN_01005; untagged full-length with signal peptide and predicted GPI anchor, 35S promoter, expressed in Arabidopsis thaliana (line 303 1L3); detergent-solubilised membrane protein preparation", "T1 sequence (G4T774 20-579)": "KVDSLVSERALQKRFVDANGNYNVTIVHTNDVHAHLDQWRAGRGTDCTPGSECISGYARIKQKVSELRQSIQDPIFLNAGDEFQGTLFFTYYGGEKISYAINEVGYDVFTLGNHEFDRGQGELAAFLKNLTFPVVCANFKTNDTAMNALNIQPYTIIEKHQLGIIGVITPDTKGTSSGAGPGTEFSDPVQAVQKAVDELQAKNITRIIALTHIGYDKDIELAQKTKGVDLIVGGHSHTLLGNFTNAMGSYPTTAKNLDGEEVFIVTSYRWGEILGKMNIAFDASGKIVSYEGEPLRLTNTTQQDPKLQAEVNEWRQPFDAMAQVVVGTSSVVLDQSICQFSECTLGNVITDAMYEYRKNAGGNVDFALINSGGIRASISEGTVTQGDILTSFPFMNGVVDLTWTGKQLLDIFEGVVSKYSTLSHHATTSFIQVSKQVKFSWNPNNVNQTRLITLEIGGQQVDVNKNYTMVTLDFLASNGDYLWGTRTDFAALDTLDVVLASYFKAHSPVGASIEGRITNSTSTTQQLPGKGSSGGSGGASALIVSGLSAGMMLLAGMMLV", "assay": "phosphate release (EnzChek phosphate assay), membrane protein preparation of transgenic A. thaliana versus mCherry control line", "format": "biochemical", "conditions": "100 μM substrate, 10 mM Tris/MES, 2 mM MgCl2, 30 mM KCl, pH 6.5", "data": [{"molecule": "Nc1ncnc2c1ncn2[C@@H]1O[C@H](COP(=O)(O)O)[C@@H](O)[C@H]1O", "note": "[AMP]", "values": [{"measurement": "phosphate release (EnzChek phosphate assay), membrane protein preparation of tra", "result": "production of a membrane‐localized enzyme capable of hydrolyzing ATP, ADP, and AMP"}]}, {"molecule": "Nc1ncnc2c1ncn2[C@@H]1O[C@H](COP(=O)(O)OP(=O)(O)OP(=O)(O)O)[C@@H](O)[C@H]1O", "note": "[ATP]", "values": [{"measurement": "phosphate release (EnzChek phosphate assay), membrane protein preparation of tra", "result": "production of a membrane‐localized enzyme capable of hydrolyzing ATP, ADP, and AMP"}]}]}
